This note sets out measurements from patent US20240270737A1, “SMALL MOLECULAR INHIBITORS OF STING SIGNALING COMPOSITIONS AND METHODS OF USE” (STINGINN INC., priority 2021, published 2024).

Each structure is given as a SMILES string.

One test concerns STING trafficking. The test can be described thus: Confocal analysis of STING trafficking in hTERT cells. The note with it: 6 hours after ISD transfection. The test is classed as cell-based, human. As to the method:
FIG. 1D are photographs showing confocal analysis for STING trafficking was performed at 6 hours after ISD transfection with/without W1, treatment same as FIG. 1A, according to an embodiment of the invention;
(§1) Immunofluorescence Microscopy: Cells were cultured and treated in their appropriate media on Lab-Tek II chamber slides. Cell were fixed with 4% paraformaldehyde for 15 minutes in at 37° C. and permeabilized with 0.05% Triton X-100 for 5 minutes at room temperature. Immunostaining was performed with rabbit-anti-STING polyclonal, rabbit-anti-IRF3 (Santa Cruz Biotechnology) or rabbit-anti-p65 (Cell Signaling) followed by fluorescence conjugated secondary antibodies (FITC-goat-anti-rabbit) (Invitrogen).

Test [1] concerns IRF3 translocation induced by dsDNA (ISD). In words: IRF3 translocation inhibition, confocal/immunofluorescence after ISD transfection. It is filed as cell-based. Conditions: Homo sapiens, % means blockage of IRF3 translocation induced by dsDNA (ISD). As to the method: Inhibition of IFNβ expression was measured by Luciferase induction at 24 hours after transfection of ISD. […]. […] FIG. 3H qPCR of IFNβ 1 performed in MEFs treated same as in FIG. 3A. FIG. 3I qPCR of CCL5 performed in MEFs treated same as in FIG. 3A.
as §1

Another test deals with STING activation, Cxcl10. The test can be described thus: STING activation in MEFs stimulated with ISD (qPCR of Cxcl10, Western blot, confocal). It is filed as cell-based, mouse. The method, then:
FIG. 1E are photographs showing Western blot analysis in murine fibroblasts (MEFs) treated the same as FIG. 1A, according to an embodiment of the invention;
FIG. 1F are photographs showing confocal analysis in MEFs treated the same as FIG. 1A, according to an embodiment of the invention;
MEFs were treated with W1 and then stimulated with cytoplasmic DNA (ISD) and examined Cxcl10 expression by qPCR and STING-dependent phosphorylation of TBK1 and IRF3.
Mouse embryonic fibroblasts (MEFs) were obtained from E13.5 embryos by a standard procedure. Bone Marrow Derived Macro-phages (BMDM) were isolated from hind-limb femurs of 8-10 weeks old WT and Trex1 KO (TKO) mice. The hematopoietic cells from the bone marrow were cultured in complete DMEM (Invitrogen) including 10 ng/ml of Mouse Recombinant Colony-Stimulating Factor (M-CSF, R&D Systems) for 10 to 14 days.
(§2) Quantitative Real time PCR (qPCR) Total RNA were reverse-transcribed using M-MLV Reverse Transcriptase (Promega). Real-time PCR was performed using Taqman Gene Expression Assay (Applied Biosystems) for innate immune genes and inflammatory cytokines.
In general terms: Real-time PCR tracks product formation cycle by cycle.

In test [2] the test system is IFNβ expression (type I IFNβ promoter driving luciferase). The test can be described thus: IFNβ promoter luciferase assay in hTERT-pIFNβ-Glu cells transfected with ISD. The test is classed as cell-based, human. The method, then: Inhibition of IFNβ expression was measured by Luciferase induction at 24 hours after transfection of ISD, DMSO is shown (230), ISD treatment only (220) was used as a control, according to an embodiment of the invention;
Inhibition of IFNβ expression was measured by Luciferase induction at 24 hours after transfection of ISD, Mock is shown (210), ISD treatment only (220) was used as a control, according to an embodiment of the invention;
Identification of small molecule inhibitors of STING. In the presence of cytosolic DNA species, STING becomes activated to drive the transcription of cytokines such as type I IFN. Compounds binding to STING via TSA were subsequently examined for their ability to prevent cytosolic DNA species from activating the type I interferon (IFN) promoter, using a live cell assay. This assay comprised immortalized human fibroblasts (hTERT) that were stably transfected with the type I IFN promoter driving luciferase as well as the CMV promoter driving SEAP (hTERT-pIFNβ-Glu). The live cell assay has previously been disclosed in PCT/US2019/025380 entitled IFN-Beta Reporter System for Immortalized Primary Cells inventor Glen N. Barber, which was filed Apr. 2, 2018 and published as WO2019195285, and which is herein incorporated by reference in its entirety and for all purposes. The ability of the small molecules to prevent activation of the type I IFN promoter and the transcription of luciferase, but not SEAP in response to cytosolic DNA species was assessed. The activation of STING, typically by CDNs, in turn activates the transcription factors NF-κB and IRF3, both of which are required to induce the transcriptional stimulation of the Type I IFN promoter, but not the CMV promoter as IRF3 and NF-kB transcription factor binding sites are not contained in the CMV promoter. The assay identified the small molecule Compound W1 in the first screen (HTS), where the level of luciferase was not able to activate the type I IFN promoter or induce the expression of luciferase (see Table I and Table II).
Inhibition of IFNβ expression was measured by Luciferase induction at 24 hours after transfection of ISD. ISD only treatment was used as control.
Inhibition of IFNβ expression was measured by Luciferase induction at 24 hours after transfection of ISD, Mock is shown (210), ISD treatment only (220) was used as a control.
Luciferase assay: hTERT-BJ1 Telomerase Fibroblasts stably expressing the luciferase gene under the control of the interferon-beta promoter and SEAP gene under control of the CMV promoter) (hTERT-pIFNβ-Glu) were generated by the Barber laboratory. Luciferase assay was performed using Secrete-Pair Dual Luminescence Assay Kit from GeneCopoeia following the manufacturer's protocol.

The subject of test [3] is IFNβ expression and production. In words: IFNβ expression and production in normal hTERT cells (qPCR, ELISA). The test is classed as cell-based, human. The note with it: ISD transfection. As to the method: The ability of compound W1 administered onto normal hTERT cells to prevent cytosolic DNA from activating STING was assessed (FIGS. 1B-H). […] In addition, the level of STING phosphorylation (STING is phosphorylated following activation) and the subsequent phosphorylation of TBK1, the kinase of IRF3 was assessed. Phosphorylation of TBK1 and IRF3 are required for activation of the type I IFN promoter.
Interferon R Elisa analysis: Interferon R Elisa was performed using either the IFNβ human ELISA Kit from Invitrogen or the Human IFNβ ELISA Kit from PBL Interferon Source following the manufacturer's protocol.
as §2

As usually defined, the inhibition is the relative decrease from the control value, in per cent. High values mean a response far below the control, low ones a response near the control. Consider `Cc1cc([N+](=O)[O-])ccc1S(=O)(=O)Nc1nc2cc(C(F)(F)F)ccc2[nH]1` [Compound W1, 2-methyl-4-nitro-N-[5-(trifluoromethyl)-1H-1,3-benzodiazol-2-yl]benzene-1-sulfonamide], for which, in the test with STING trafficking, the STING trafficking result was “effectively preventing STING trafficking”. The molecule further had an inhibition at 25 µM in test [1] of 40 to 50%. Further, in the test on STING activation, Cxcl10, the “production of STING-inducible cytokine Cxcl10 in response to ISD” value is “dramatically decreased”. For the same molecule, the “activation of the type I IFN promoter in response to cytosolic DNA (luciferase)” value in test [2] (50 μM, 24 hours, ISD 3 μg/ml, hTERT-pIFNβ-Glu cells) is listed as “inhibited activation of the type I IFN promoter”. Further, in test [2] (Homo sapiens), at 5 µM the inhibition was 4%. Moreover, the “IFNβ expression and production” value in test [3] is recorded as “dramatically decreased”.
